Assay results: ChEMBL document CHEMBL1201862, “PubChem BioAssay data set” (2004)
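Interpolation was linear, between the two tested concentrations surrounding the appropriate level; five concentrations were tested over 48 hours in 96-well plates. GI50 marks 50% less growth.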 Active and inactive are the calls of the source. Cut-off read from the data, not from the text of the source: active = GI50 up to about 1.1 µM and inactive = higher.

Columns and labels:
Experiment in all cases: NCI anticancer screen, dose series, 48 h
[1] = test system: HL-60
[2] = test system: HT-29
[3] = test system: MDA-N
[4] = test system: UO-31
[5] = test system: KM12
[6] = test system: HCT-15
[7] = test system: CAKI-1
[8] = test system: Malme-3M
[9] = test system: OVCAR-5
[10] = test system: UACC-62
[11] = test system: 786-0
[12] = test system: NCI-H23
[13] = test system: Hs-578T
[14] = test system: MDA-MB-435
[15] = test system: OVCAR-8
[16] = test system: HOP-92
[17] = test system: NCI-H226
[18] = test system: SF-295
[19] = test system: ACHN
[20] = test system: MCF7
[21] = test system: RPMI-8226
[22] = test system: HOP-62
[23] = test system: MOLT-4
[24] = test system: DU-145
[25] = test system: NCI-H522
[26] = test system: OVCAR-3
[27] = test system: SN12C
[28] = test system: T47D
[29] = test system: SW-620
[30] = test system: COLO 205
[31] = test system: OVCAR-4
[32] = test system: SNB-19
[33] = test system: SK-MEL-28
[34] = test system: RXF 393
[35] = test system: K562
[36] = test system: IGROV-1
[37] = test system: UACC-257
[38] = test system: SK-MEL-5
[39] = test system: HCT-116
[40] = test system: BT-549
[41] = test system: SNB-75
[42] = test system: SK-MEL-2
[43] = test system: PC-3
[44] = test system: LOX IMVI
[45] = test system: NCI/ADR-RES
[46] = test system: M14
[47] = test system: SK-OV-3
[48] = test system: EKVX
[49] = test system: CCRF-CEM
[50] = test system: SR
[51] = test system: SF-539
[52] = test system: SF-268
[53] = test system: NCI-H460
[54] = test system: A498
[55] = test system: HCC 2998
[56] = test system: A549
[57] = test system: TK-10
[58] = test system: U-251

Structure (SMILES): Cc1ccc([N+](=O)[O-])cc1S(=O)(=O)Nc1ccc(C2=NN(S(=O)(=O)c3cc([N+](=O)[O-])ccc3C)C(c3ccco3)C2)cc1 (centres undefined)
- GI50 [1]: 38.8 µM (inactive)
- GI50 [2]: 54 µM (inactive)
- GI50 [3]: 43.9 µM (inactive)
- GI50 [4]: 41.1 µM (inactive)
- GI50 [5]: 39.4 µM (inactive)
- GI50 [6]: 41.7 µM
- GI50 [7]: 45.8 µM (inactive)
- GI50 [8]: 47.2 µM (inactive)
- GI50 [9]: > 100 µM (inactive)
- GI50 [10]: 21.8 µM (inactive)
- GI50 [11]: 48.8 µM (inactive)
- GI50 [12]: 37.6 µM (inactive)
- GI50 [13]: > 100 µM (inactive)
- GI50 [14]: 54.7 µM (inactive)
- GI50 [15]: 44.5 µM (inactive)
- GI50 [16]: 16.7 µM (inactive)
- GI50 [17]: 38.9 µM (inactive)
- GI50 [18]: 32.8 µM (inactive)
- GI50 [19]: 36.6 µM (inactive)
- GI50 [20]: 32.1 µM (inactive)
- GI50 [21]: 25.8 µM (inactive)
- GI50 [22]: 45.2 µM (inactive)
- GI50 [23]: 28.2 µM (inactive)
- GI50 [24]: 45 µM (inactive)
- GI50 [25]: 45 µM (inactive)
- GI50 [26]: 37.1 µM (inactive)
- GI50 [27]: 44.8 µM (inactive)
- GI50 [28]: 28.6 µM (inactive)
- GI50 [29]: > 100 µM (inactive)
- GI50 [30]: 39.4 µM (inactive)
- GI50 [31]: 74.8 µM (inactive)
- GI50 [32]: 46.1 µM (inactive)
- GI50 [33]: > 100 µM (inactive)
- GI50 [34]: 26.8 µM (inactive)
- GI50 [35]: 31 µM (inactive)
- GI50 [36]: 29.6 µM (inactive)
- GI50 [37]: 11.1 µM (inactive)
- GI50 [38]: 30.3 µM (inactive)
- GI50 [39]: 31.9 µM (inactive)
- GI50 [40]: 25.8 µM (inactive)
- GI50 [41]: > 100 µM (inactive)
- GI50 [42]: 38 µM (inactive)
- GI50 [43]: 45.5 µM (inactive)
- GI50 [44]: 39 µM (inactive)
- GI50 [45]: 40.3 µM (inactive)
- GI50 [46]: 42 µM (inactive)
- GI50 [47]: > 100 µM (inactive)
- GI50 [48]: 29.2 µM (inactive)
- GI50 [49]: 27.6 µM (inactive)
- GI50 [50]: 33.5 µM (inactive)
- GI50 [51]: 53 µM (inactive)
- GI50 [52]: 53.3 µM (inactive)

Structure (SMILES): COC(=O)C(C(=O)OC)C1CC(=O)c2c(Br)sc(Br)c21 (centres undefined)
- GI50 [1]: 21.2 µM (inactive)
- GI50 [53]: 18.6 µM (inactive)
- GI50 [2]: 15.4 µM (inactive)
- GI50 [3]: 23.4 µM (inactive)
- GI50 [4]: 14.5 µM (inactive)
- GI50 [54]: 31.5 µM (inactive)
- GI50 [5]: 29.2 µM (inactive)
- GI50 [55]: 14.3 µM (inactive)
- GI50 [6]: 9.44 µM
- GI50 [7]: 9.06 µM (inactive)
- GI50 [8]: 13.4 µM (inactive)
- GI50 [9]: 15.1 µM (inactive)
- GI50 [10]: 13.5 µM (inactive)
- GI50 [11]: 26.1 µM (inactive)
- GI50 [12]: 12.8 µM (inactive)
- GI50 [13]: 20.9 µM (inactive)
- GI50 [14]: 17.5 µM (inactive)
- GI50 [56]: 25 µM (inactive)
- GI50 [15]: 16.8 µM (inactive)
- GI50 [16]: 15.4 µM (inactive)
- GI50 [17]: 22 µM (inactive)
- GI50 [18]: 21.8 µM (inactive)
- GI50 [19]: 13.7 µM (inactive)
- GI50 [20]: 13.6 µM (inactive)
- GI50 [21]: 11.5 µM (inactive)
- GI50 [22]: 17.3 µM (inactive)
- GI50 [23]: 3.33 µM (inactive)
- GI50 [24]: 16.4 µM (inactive)
- GI50 [26]: 2.06 µM (inactive)
- GI50 [27]: 14.7 µM (inactive)
- GI50 [28]: 28.6 µM (inactive)
- GI50 [29]: 11.5 µM (inactive)
- GI50 [30]: 15.2 µM (inactive)
- GI50 [31]: 13 µM (inactive)
- GI50 [32]: 20.5 µM (inactive)
- GI50 [33]: 16.6 µM (inactive)
- GI50 [34]: 26.1 µM (inactive)
- GI50 [57]: 31.5 µM (inactive)
- GI50 [35]: 21 µM (inactive)
- GI50 [36]: 14.1 µM (inactive)
- GI50 [37]: 22 µM (inactive)
- GI50 [38]: 15.1 µM (inactive)
- GI50 [39]: 14.6 µM (inactive)
- GI50 [40]: 18.4 µM (inactive)
- GI50 [41]: 22.9 µM (inactive)
- GI50 [42]: 13.3 µM (inactive)
- GI50 [43]: 14.2 µM (inactive)
- GI50 [44]: 12.9 µM (inactive)
- GI50 [58]: 16.3 µM (inactive)
- GI50 [45]: 16.8 µM (inactive)
- GI50 [46]: 18.3 µM (inactive)
- GI50 [47]: 17.9 µM (inactive)
- GI50 [48]: 15.2 µM (inactive)
- GI50 [49]: 4.03 µM (inactive)
- GI50 [50]: 12.5 µM (inactive)
- GI50 [51]: 18.6 µM (inactive)
- GI50 [52]: 18.5 µM (inactive)
